The record followed here is ChEMBL document CHEMBL6115002, “Discovery of novel sitolactone derivative leading to PANoptosis and differentiation of acute myeloid leukemia cells” (Eur J Med Chem, 2025).

Series [1] concerns WEHI-3. As to the kind of experiment: Induction of apoptosis in mouse WEHI-3 cells assessed as increase in cleaved PARP-1 level incubated for 24 hrs by Western blotting analysis. It counts as functional, cell-based. Conditions: dose 25-50 µM.
The subject of series [2] is Kasumi 1. The series is described as follows: Induction of apoptosis in human Kasumi 1 cells assessed as increase in cleaved PARP-1 level incubated for 24 hrs by Western blotting analysis. It is filed as functional, cell-based. Conditions: dose 25-50 µM.
For series [3], the system named is WEHI-3. The series is described as follows: Induction of apoptosis in mouse WEHI-3 cells assessed as increase in caspase-3 level incubated for 24 hrs by Western blotting analysis. It counts as functional, cell-based. To be noted: dose 25-50 µM.
The subject of series [4] is Kasumi 1. The series is described as follows: Induction of apoptosis in human Kasumi 1 cells assessed as increase in caspase-3 level incubated for 24 hrs by Western blotting analysis. It is filed as functional, cell-based. Conditions: dose 25-50 µM.
In series [5] the test system is WEHI-3. The series is described as follows: Induction of […] in mouse WEHI-3 cells assessed as activation of p-RIPK3 level at 25 to 50 uM incubated for 24 hrs by Western blotting analysis. It counts as functional, cell-based. To be noted: dose 25-50 µM.
The subject of series [6] is Kasumi 1. The series is described as follows: Induction of […] in human Kasumi 1 cells assessed as activation of p-RIPK3 level at 25 to 50 uM incubated for 24 hrs by Western blotting analysis. It counts as functional, cell-based. Conditions: dose 25-50 µM.
In series [7] the test system is WEHI-3. The series is described as follows: Induction of […] in mouse WEHI-3 cells assessed as activation of p-MLKL level at 25 to 50 uM incubated for 24 hrs by Western blotting analysis. It counts as functional, cell-based. Conditions: dose 25-50 µM.
Series [8] concerns Kasumi 1. As to the kind of experiment: Induction of […] in human Kasumi 1 cells assessed as activation of p-MLKL level at 25 to 50 uM incubated for 24 hrs by Western blotting analysis. It counts as functional, cell-based. To be noted: dose 25-50 µM.
Series [9] concerns Mus musculus. As to the kind of experiment: Antitumor activity against Balb/c mouse implanted with mouse WEHI-3 cells assessed as reduction in hepatomegaly at 1 mg/kg, po administered once daily for 15 days. To be noted: time 15.0 day. It counts as functional, organism-based.
Series [10] in a line: Antiproliferative activity against mouse WEHI-3 cells assessed as inhibition cell proliferation incubated for 72 hrs by MTT assay. It counts as functional, cell-based. To be noted: WEHI-3, 72 h.
Series [11] relates to Kasumi 1. As to the kind of experiment: Antiproliferative activity against human Kasumi 1 cells assessed as inhibition cell proliferation incubated for 72 hrs by MTT assay. It counts as functional, cell-based. Conditions: Kasumi 1, 72 h.
The test system of another series is MV4-11. The series is described as follows: Antiproliferative activity against human MV4-11 cells assessed as inhibition cell proliferation incubated for 72 hrs by MTT assay. It counts as functional, cell-based. To be noted: MV4-11, 72 h.
Series [12] is described as follows: Permeability of compound in human Caco-2 cells. It is filed as ADME, cell-based.
The next series concerns HCT-116. The series is described as follows: Inhibition of tumor sphere formation in human HCT-116 cells at 1.25 uM incubated for 24 hrs. It is filed as functional, cell-based.
Series [13] is described as follows: Cmax in male Sprague-Dawley rat at 50 mg/kg, iv measured after 18 hrs LC/MS-MS analysis. To be noted: in vivo. It is filed as ADME, organism-based.
Series [14] in a line: AUC (0 to t) in male Sprague-Dawley rat at 50 mg/kg, iv measured after 18 hrs LC/MS-MS analysis. It is filed as ADME, organism-based. To be noted: in vivo.
Series [15] can be described thus: Half life in male Sprague-Dawley rat at 50 mg/kg, iv measured after 18 hrs LC/MS-MS analysis. It counts as ADME, organism-based. To be noted: in vivo.
A short description of series [16]: Oral bioavailability in male Sprague-Dawley rat at 200 mg/kg measured after 18 hrs LC/MS-MS analysis. It counts as ADME, organism-based. Conditions: in vivo.
Series [17] in a line: Cmax in male Sprague-Dawley rat at 200 mg/kg, po measured after 18 hrs LC/MS-MS analysis. It counts as ADME, organism-based. Conditions: in vivo.
Series [18] is described as follows: AUC(0 to t) in male Sprague-Dawley rat at 200 mg/kg, po measured after 18 hrs LC/MS-MS analysis. It counts as ADME, organism-based. To be noted: in vivo.
The nature of series [19]: Half life in male Sprague-Dawley rat at 200 mg/kg, po measured after 18 hrs LC/MS-MS analysis. It counts as ADME, organism-based. Conditions: in vivo.
For series [20], the system named is Mus musculus. As to the kind of experiment: Antitumor activity against Balb/c mouse implanted with mouse WEHI-3 cells assessed as reduction in hepatomegaly at 100 to 200 mg/kg, po administered once daily for 15 days. It is filed as functional, organism-based. To be noted: dose 100-200 mg/kg, time 15.0 day.
Series [21] relates to Mus musculus. As to the kind of experiment: Antitumor activity against Balb/c mouse implanted with mouse WEHI-3 cells assessed as reduction in splenomegaly at 100 to 200 mg/kg, po administered once daily for 15 days. It counts as functional, organism-based. Conditions: dose 100-200 mg/kg, time 15.0 day.
Series [22] concerns WEHI-3. The series is described as follows: Antitumor activity against mouse WEHI-3 cells implanted in Balb/c mouse assessed as reduction in liver metastasis at 100 to 200 mg/kg, po administered daily for 15 days by H and E staining based analysis. It is filed as functional, organism-based. To be noted: dose 100-200 mg/kg, time 15.0 day.
The subject of series [23] is Mus musculus. As to the kind of experiment: Antitumor activity against Balb/c mouse implanted with mouse WEHI-3 cells assessed as reduction in splenomegaly at 1 mg/kg, po administered once daily for 15 days. It is filed as functional, organism-based. To be noted: time 15.0 day.
Series [24] has as its system Kasumi 1. As to the kind of experiment: Upregulation of SMARCB1 protein level in human Kasumi 1 cells by pull down based Western blotting analysis. It is filed as functional, cell-based.
The subject of series [25] is Kasumi 1. The series is described as follows: Upregulation of SMARCA2 protein level in human Kasumi 1 cells by pull down based Western blotting analysis. It is filed as functional, cell-based.
Series [26] concerns Kasumi 1. The series is described as follows: Upregulation of SMARCA4 protein level in human Kasumi 1 cells by pull down based Western blotting analysis. It counts as functional, cell-based.

Active and inactive are the calls of the source. The calls are words filed in the database; no cut-off is given here.

On to `COC(=O)C[C@](O)(CCCC(C)(C)O)C(=O)O[C@@H]1C(OC)=C[C@]23CCCN2CCc2cc4c(cc2[C@H]13)OCO4`, for which the Activity result in the series with WEHI-3 [1], in the series with Kasumi 1 [2], in the series with WEHI-3 [3] and in the series on Kasumi 1 [4] was “Dose-dependent-effect” in each case. Also, the outcome in the series with WEHI-3 [5], in the series with Kasumi 1 [6], in the series on WEHI-3 [7] and with Kasumi 1 [8] was inactive. Besides, the outcome in the series on Mus musculus [9] was Active.

On to `C=C1C[C@@H]2[C@@H](CC[C@]3(C)[C@@H](OC(c4ccccc4)(c4ccccc4)c4ccccc4)CC[C@@H]23)OC1=O`, for which the IC50 worked out at 1030 nM in [10], 1850 nM in the series with Kasumi 1 [11] and 2680 nM in the series with MV4-11. Besides, in series [12], the permeability result is given as “Permeable”. The inhibition entry in the series on HCT-116 was “inactive”.

For `CC(C)[Si](O[C@H]1CC[C@H]2[C@@H]3CC(CN4CCC[C@H]4CO)C(=O)O[C@@H]3CC[C@]12C)(C(C)C)C(C)C` (stereo partly drawn), the Cmax stood at 12100 ng/mL in series [13] and 17700 ng/mL in series [17]. Further, the figures for the AUC(0-t) at 18 h in series [14] and in series [18] were 7150 ng·h/mL and 19600 ng·h/mL, respectively. Also, the results for the half-life in series [15] and in [19] were 16.3 min and 59.8 min, respectively. The compound also registered a bioavailability in series [16] of 68.6%. Also, the outcome in the series with Mus musculus [20], in the series on Mus musculus [21], in the series on WEHI-3 [22] and in the series with Mus musculus [23] was Active.

`C=C1C[C@@H]2[C@@H](CC[C@]3(C)[C@@H](OC(c4ccccc4)(c4ccc(OC)cc4)c4ccc(OC)cc4)CC[C@@H]23)OC1=O`: the values for the IC50 (in [10]; with Kasumi 1 [11]; in the series on MV4-11) were 940 nM, 1460 nM and 3040 nM, respectively. Further, in [12], the permeability entry was “Permeable”. In the series on HCT-116, the inhibition result is “inactive”.

For the compound `CC(C)[Si](O[C@H]1CC[C@H]2[C@@H]3CC(CCCc4cn(CCOCCOCCOCCNC(=O)CCCC[C@@H]5SC[C@@H]6NC(=O)N[C@@H]65)nn4)C(=O)O[C@@H]3CC[C@]12C)(C(C)C)C(C)C` (stereo partly drawn), the outcome with Kasumi 1 [24], in the series on Kasumi 1 [25] and in the series with Kasumi 1 [26] was Active.
